Data taken from patent US9868748B2, “Thiazolopyrrolidine inhibitors of ROR- γ” (Vitae Pharmaceuticals, Inc., priority 2013, dated 2018).

Experiments:
[1] = target: recombinant RORγ Ligand Binding Domain (LBD) protein (Homo sapiens (Human), UniProt P51449); assay: Radio-Ligand RORγ Binding Assay (Assay 1); settings: competition with 25-hydroxy [26,27-3H]-cholesterol, SPA; Table 8; read-out: RORγ Binding Ki Range*
Outline: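 Recombinant human RORγ ligand binding domain (6×His-GST fusion, 24 nM stock) competed with tritiated 25-hydroxycholesterol (8.6 nM stock) in HEPES buffer pH 7.4 with detergents and DTT; poly-Lys YSi SPA beads, room temperature, tritium SPA signal. Four-parameter IC50 from semi-log dilutions, normalised to DMSO and 10 μM T0901317, then Ki via KD equation.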

[2] = target: full-length RORγt in Jurkat cells (Homo sapiens (Human), UniProt P51449); assay: RORγt 5xRORE Assay in Jurkat Cells (Assay 2); type: cell-based; settings: Nanoluc luciferase reporter, 16-18 hrs, Table 8, read-out: RORγt5X IC50 Range*
Outline: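 Inverse agonist activity was read as NanoGlo luminescence from conditioned medium after 16–18 h compound exposure (37 °C, 0.1% DMSO final). The cells were Jurkat, transiently transfected with RORγt and a secNluc reporter carrying five RORE repeats, seeded 80,000 per well in delipidated-serum RPMI.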

Sequence of recombinant RORγ Ligand Binding Domain (LBD) protein (P51449 269-508): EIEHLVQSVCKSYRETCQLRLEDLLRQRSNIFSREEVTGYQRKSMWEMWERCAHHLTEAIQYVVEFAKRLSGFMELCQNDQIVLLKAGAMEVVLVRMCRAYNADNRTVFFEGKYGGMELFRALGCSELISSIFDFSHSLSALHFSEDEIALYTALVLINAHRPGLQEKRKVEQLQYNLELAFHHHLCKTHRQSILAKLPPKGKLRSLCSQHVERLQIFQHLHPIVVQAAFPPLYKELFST
Sequence of full-length RORγt in Jurkat cells (P51449 other isoform, or with tags, fused parts or gaps): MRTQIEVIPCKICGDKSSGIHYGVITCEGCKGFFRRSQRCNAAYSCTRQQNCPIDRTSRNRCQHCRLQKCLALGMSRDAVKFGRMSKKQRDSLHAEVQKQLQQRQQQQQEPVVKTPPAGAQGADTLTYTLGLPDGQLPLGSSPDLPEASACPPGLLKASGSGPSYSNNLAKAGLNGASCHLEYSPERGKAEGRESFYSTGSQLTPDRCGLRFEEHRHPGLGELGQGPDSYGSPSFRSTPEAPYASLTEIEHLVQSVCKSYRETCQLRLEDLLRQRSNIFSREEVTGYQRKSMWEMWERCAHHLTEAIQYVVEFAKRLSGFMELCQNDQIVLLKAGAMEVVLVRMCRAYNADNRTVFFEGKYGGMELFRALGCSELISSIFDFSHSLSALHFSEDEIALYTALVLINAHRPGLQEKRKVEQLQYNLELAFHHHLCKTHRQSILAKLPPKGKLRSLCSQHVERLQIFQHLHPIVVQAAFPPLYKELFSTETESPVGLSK

Row | Compound | Ki [1] | IC50 [2]
1 | CCS(=O)(=O)c1ccc(CC(=O)Nc2nc3c(s2)CN(Cc2ccc(C#N)c(F)c2)[C@H]3C(C)C)cc1 [I-A4] | < 100 nM | < 100 nM
2 | CCS(=O)(=O)c1ccc(CC(=O)Nc2nc3c(s2)CN(Cc2ccc(C#N)cn2)[C@H]3C(C)C)cc1 [I-A5] | < 100 nM | < 100 nM
3 | CCS(=O)(=O)c1ccc(CC(=O)Nc2nc3c(s2)CN(Cc2ncc(C(F)(F)F)cn2)[C@H]3C(C)C)cc1 [I-A6] | < 100 nM | < 100 nM
4 | CCS(=O)(=O)c1ccc(CC(=O)Nc2nc3c(s2)CN(Cc2ccccc2)[C@H]3C(C)C)cc1 [I-A7] | < 100 nM | > 1000 nM
5 | CCS(=O)(=O)c1ccc(CC(=O)Nc2nc3c(s2)CN(Cc2cccc(C(F)(F)F)c2)[C@H]3C(C)C)cc1 [I-A8] | < 100 nM | > 1000 nM
6 | CCS(=O)(=O)c1ccc(CC(=O)Nc2nc3c(s2)CN(Cc2nnc(C(F)(F)F)o2)[C@H]3C(C)C)cc1 [I-A9] | < 100 nM | > 1000 nM
7 | CCS(=O)(=O)c1ccc(CC(=O)Nc2nc3c(s2)CN(Cc2ncc(Cl)cc2F)[C@H]3C(C)C)cc1 [I-A10] | < 100 nM | < 100 nM
8 | CCS(=O)(=O)c1ccc(CC(=O)Nc2nc3c(s2)CN(Cc2ccc(Cl)cn2)[C@H]3C(C)C)cc1 [I-A11] | < 100 nM | < 100 nM
9 | CCS(=O)(=O)c1ccc(CC(=O)Nc2nc3c(s2)CN(Cc2ccc(C#N)cc2F)[C@H]3C(C)C)cc1 [I-A13] | < 100 nM | < 100 nM
10 | CCS(=O)(=O)c1ccc(CC(=O)Nc2nc3c(s2)CN(Cc2ccc(F)cc2)[C@H]3C(C)C)cc1 [I-A14] | < 100 nM | > 1000 nM
11 | CCS(=O)(=O)c1ccc(CC(=O)Nc2nc3c(s2)CN(Cc2ccc(C#N)cc2)[C@H]3C(C)C)cc1 [I-A15] | < 100 nM | < 100 nM
12 | CCS(=O)(=O)c1ccc(CC(=O)Nc2nc3c(s2)CN(Cc2ccc(OC(F)(F)F)cc2)[C@H]3C(C)C)cc1 [I-A16] | < 100 nM | < 100 nM
13 | CCS(=O)(=O)c1ccc(CC(=O)Nc2nc3c(s2)CN(C[C@H]2CC[C@H](C(F)(F)F)CC2)[C@H]3C(C)C)cc1 [I-A17, 2-(4-(ethylsulfonyl)phenyl)-N—((S)-4-isopropyl-5-((trans-4-(trifluoromethyl)cyclohexyl)methyl)-5,6-dihydro-4H-pyrrolo[3,4-d]thiazol-2-yl)acetamide] | < 100 nM | < 100 nM
14 | CCS(=O)(=O)c1ccc(CC(=O)Nc2nc3c(s2)CN(Cc2ccc(-c4ccn(C)c(=O)c4)cc2)[C@H]3C(C)C)cc1 [I-A18, (S)-2-(4-(ethylsulfonyl)phenyl)-N-(4-isopropyl-5-(4-(1-methyl-2-oxo-1,2-dihydropyridin-4-yl)benzyl)-5,6-dihydro-4H-pyrrolo[3,4-d]thiazol-2-yl)acetamide] | < 100 nM | < 100 nM
15 | CCS(=O)(=O)c1ccc(CC(=O)Nc2nc3c(s2)CN(Cc2ccc(-c4ccc(=O)n(C)c4)cc2)[C@H]3C(C)C)cc1 [I-A19, (S)-2-(4-(ethylsulfonyl)phenyl)-N-(4-isopropyl-5-(4-(1-methyl-6-oxo-1,6-dihydropyridin-3-yl)benzyl)-5,6-dihydro-4H-pyrrolo[3,4-d]thiazol-2-yl)acetamide] | < 100 nM | < 100 nM
16 | CCS(=O)(=O)c1ccc(CC(=O)Nc2nc3c(s2)CN(CC2CCN(CC(F)(F)F)CC2)[C@H]3C(C)C)cc1 [I-A20, (S)-2-(4-(ethylsulfonyl)phenyl)-N-(4-isopropyl-5-((1-(2,2,2-trifluoroethyl)piperidin-4-yl)methyl)-5,6-dihydro-4H-pyrrolo[3,4-d]thiazol-2-yl)acetamide] | < 100 nM | < 100 nM
17 | CCS(=O)(=O)c1ccc(CC(=O)Nc2nc3c(s2)CN(Cc2ccc(C(F)(F)F)nc2C)[C@H]3C(C)C)cc1 [I-A21] | < 100 nM | < 100 nM
18 | CCS(=O)(=O)c1ccc(CC(=O)Nc2nc3c(s2)CN(C[C@H]2CC[C@H](C(F)(F)F)N(C)C2)[C@H]3C(C)C)cc1 [I-A22] | < 100 nM | < 100 nM
19 | CCS(=O)(=O)c1ccc(CC(=O)Nc2nc3c(s2)CN(C[C@H]2CC[C@H](c4nnc(C)o4)CC2)[C@H]3C(C)C)cc1 [I-A23] | < 100 nM | < 100 nM

Row | Compound | Ki [1] | IC50 [2]
20 | CCS(=O)(=O)c1ccc(CC(=O)Nc2nc3c(s2)CN([C@H](C)c2ccc(Br)cc2F)[C@H]3C(C)C)cc1 [I-A24] | < 100 nM | < 100 nM
21 | CCS(=O)(=O)c1ccc(CC(=O)Nc2nc3c(s2)CN([C@@H](C)c2ccc(Br)cc2F)[C@H]3C(C)C)cc1 [I-A25] | < 100 nM | < 100 nM
22 | CCS(=O)(=O)c1ccc(CC(=O)Nc2nc3c(s2)CN(C[C@@H]2CC[C@@H](C(F)(F)F)OC2)[C@H]3C(C)C)cc1 [I-A26] | < 100 nM | < 100 nM
23 | CCS(=O)(=O)c1ccc(CC(=O)Nc2nc3c(s2)CN(C[C@H]2CC[C@H](C(F)(F)F)OC2)[C@H]3C(C)C)cc1 [I-A27] | < 100 nM | < 100 nM
24 | CCS(=O)(=O)c1ccc(CC(=O)Nc2nc3c(s2)CN(C[C@H]2CC[C@H](OC(F)F)CC2)[C@H]3C(C)C)cc1 [I-A28] | < 100 nM | < 100 nM
25 | CCS(=O)(=O)c1ccc(CC(=O)Nc2nc3c(s2)CN(C[C@@H]2CC[C@@H](C(F)(F)F)N(C)C2)[C@H]3C(C)C)cc1 [I-A29] | < 100 nM | < 100 nM
26 | CCS(=O)(=O)c1ccc(CC(=O)Nc2nc3c(s2)CN(Cc2ccc(C(F)(F)F)c(OC)n2)[C@H]3C(C)C)cc1 [I-A31] | < 100 nM | < 100 nM
27 | CCS(=O)(=O)c1ccc(CC(=O)Nc2nc3c(s2)CN(C(C)c2c(F)cc(Cl)cc2F)[C@H]3C(C)C)cc1 (some centres unmarked) [I-A32] | < 100 nM | < 100 nM
28 | CCS(=O)(=O)c1ccc(CC(=O)Nc2nc3c(s2)CN(Cc2ccc(C(F)(F)F)c(C)n2)[C@H]3C(C)C)cc1 [I-A33] | < 100 nM | < 100 nM
29 | CCS(=O)(=O)c1ccc(CC(=O)Nc2nc3c(s2)CN([C@H](C)c2ccc(C(F)(F)F)cc2)[C@H]3C(C)C)cc1 [I-A34] | < 100 nM | < 100 nM
30 | CCS(=O)(=O)c1ccc(CC(=O)Nc2nc3c(s2)CN([C@@H](C)c2ccc(C(F)(F)F)cc2)[C@H]3C(C)C)cc1 [I-A35] | < 100 nM | < 100 nM
31 | CCS(=O)(=O)c1ccc(CC(=O)Nc2nc3c(s2)CN([C@H](C)c2ccc(C(F)(F)F)cc2F)[C@H]3C(C)C)cc1 [I-A36] | < 100 nM | < 100 nM
32 | CCS(=O)(=O)c1ccc(CC(=O)Nc2nc3c(s2)CN([C@@H](C)c2ccc(C(F)(F)F)cc2F)[C@H]3C(C)C)cc1 [I-A37] | < 100 nM | < 100 nM
33 | CCS(=O)(=O)c1ccc(CC(=O)Nc2nc3c(s2)CN([C@H](C)c2ccc(Cl)cc2F)[C@H]3C(C)C)cc1 [I-A38] | < 100 nM | < 100 nM
34 | CCS(=O)(=O)c1ccc(CC(=O)Nc2nc3c(s2)CN([C@@H](C)c2ccc(Cl)cc2F)[C@H]3C(C)C)cc1 [I-A39] | < 100 nM | < 100 nM
35 | CCS(=O)(=O)c1ccc(CC(=O)Nc2nc3c(s2)CN(Cc2ccc(-c4nnnn4C)cc2)[C@H]3C(C)C)cc1 [I-A40] | < 100 nM | < 100 nM
36 | CCS(=O)(=O)c1ccc(CC(=O)Nc2nc3c(s2)CN(C[C@H]2CN(C(=O)OC(C)(C)C)CCO2)[C@H]3C(C)C)cc1 [I-A41] | < 100 nM | < 100 nM
37 | CCS(=O)(=O)c1ccc(CC(=O)Nc2nc3c(s2)CN(Cc2ccc(-c4nnn(C)n4)cc2)[C@H]3C(C)C)cc1 [I-A42] | < 100 nM | < 100 nM
